# Key:
# [1] = test system: ND7 cells; experiment: X-gal histochemistry cell counts, undifferentiated ND7 cells; assay type: cell-based, rat/mouse
# Protocol: ND7 neurons were plated in 24 well culture dishes at a density of 4×10^4 cells/well and allowed to grow for 24 hrs. The undifferentiated ND7 neurons were then transfected with either pCMVb alone (A), pCMVb complexed with DC-Chol/DOPE (1/3, w/w) (B) or with pCMVb complexed with Mu1 and DC-Chol/DOPE (1/12/6) (C). Forty-eight hours later the cells were fixed and processed for histochemical detection of X-Gal.
# DNA and liposomes were combined by the addition of 400 μL serum-free differentiation media and gentle shaking. The DNA: liposome mixture was incubated at room temperature for 20 to 30 minutes before being applied to the cells. The DNA/liposome mixture was then applied to the cells and incubated at 37° C., 5% CO2 for 2 hours after which this media was replaced with complete media Twenty four to 48 hours later the cells were fixed and processed for X-gal histochemistry as described ^31 or harvested for β-galactosidase enzyme assays (Promega Corp.).
# Cell counts were performed under ×40 magnification using a Nikon Diaphot inverted microscope. Each transfection was repeated at least three times and at least three separate counts were made for each well.
# The β-galactosidase reporter gene assay provides a measure of the overall level of β-galactosidase produced, but gives no information regarding the number of cells transfected. For this reason, we also performed cell counts on transfected ND7 cells. Cells were seeded at a density of 4×10^4 in 24 well culture plates. After 24 hours the cells were washed briefly in serum-free media and transfected with pCMVβ complexed to DC-Chol/DOPE and Mu1 peptide. The ratios used were those found to be optimal in the reporter gene assay, 1:12:6, pCMVβ:Mu1:DC-Chol/DOPE. Using these ratios, we found a 6-fold increase in the number of β galactosidase positive cells (FIGS. 3 & 6).
# [2] = charge ratios worked out from the sequence; assay type: physicochemical
# Text: Mu1 is a polycationic peptide comprised of 19 amino acids associated with the core complex of Adenovirus (Table 1) ^27, 32. We compared the DNA binding capacity of Mu1 with the mouse polyomavirus major capsid protein Vp1 by interaction with plasmid DNA in a gel retardation assay. Vp1 is a 19 amino acid peptide that contains a nuclear localization signal ^26 and contains fewer positively charged amino acids than Mu1. It was therefore predicted to have a lower DNA binding capacity.
# The success of non-viral gene delivery vehicles as viable alternatives to virus vector-based systems is dependent on the development of complexes with higher and longer lasting transfection efficiencies. Since the initial identification of cationic liposomes as vehicles for the transfer of genetic material into cells there has been a large push to develop better cationic liposome formulations ^5, 7. Most attempts at improving cationic liposomes have been based on structural modifications to the molecule itself ^30. Novel formulations have been developed which have improved transfection efficiencies ^30. However, particular cell types behave differently in regards to cationic liposomal transfection. For example, we found the polypeptide Mu1 better at enhancing cationic liposome mediated transfection than Vp1. This was probably due to Mu1's greater charge ratio. While both peptides are approximately the same molecular weight, the overall charge ratio of Mu1 was more than twice that of Vp1 (Table 1). […] While a small shift in pDNA mobility was detected when 0.25 μg Mu1 was complexed to 1 μg pCMVβ, almost all of the plasmid was retained near the loading well following addition of 0.5 μg Mu1 (FIG. 1). A 0.5/1.0 (w/w) ratio of Mu1 to pCMVβ corresponds to a 1000/1 molar ratio. Each molecule of Mu1 contains 12 residues that could potentially carry a positive charge. The theoretical charge ratio of Mu1 to pCMVβ would then be 1.6 (12000 Mu1 cations to 7500 pCMVβ anions).
# [3] = test system: HeLa cells; experiment: β-galactosidase assay, alternative cationic peptides in HeLa cells; assay type: cell-based, human; settings: DC-Chol:DOPE liposome:peptide:DNA 12:0.6:1, 30 min, DNA 1.0 μg/ml
# Protocol: In order to examine the effects of various alternative cationic peptides on transfection activities, a series of liposome:cationic peptide:DNA complexes were prepared and their relative transfection abilities analysed in vitro. The peptides used were poly-lysine hydrochloride (average molecular weight 3970, Sigma), poly arginine hydrochloride (average molecular weight 11800, Sigma) a peptide derived from protein V, pV (p5, sequence shown below), a peptide analogue of Mu1 (V, sequence shown below) and Mu1 peptide itself. The p5 peptide and V peptide were synthesized using the same solid-phase peptide synthesis methodology as was used to prepare Mu1 peptide.
# Each peptide was combined with cationic liposome (DC-Chol:DOPE 3:2 m/m) and DNA (pCMVβ) in the liposome:peptide:DNA ratio of 12:0.6:1 (w/w/w) as described in Example 4. The transfection activities were examined using HeLa cells (human epithelial cells). The cells were seeded at an approximate density of 5×10^4 per well in a 24-well culture plate in DMEM supplemented with 10% FCS and grown for 24 h in the presence of 5% CO2 at 37° C. Cells were washed by brief exposure to DMEM and then treated with solutions containing LMD or LD complexes, prediluted with OPTIMEM (Gibco) (final DNA concentration 1.0 μg/ml in all cases), for 30 min. Cells were then washed again and incubated for a further 48 h in DMEM supplemented with 10% FCS prior to harvesting. The level of β-galactosidase enzyme activity was determined with a standard assay kit (chemiluminescent, Roche).
substance,measurement,setting,value
H-MRRAHHRRRRASHRRMRGG-OH [Mu1],number of X-Gal positive cells (FIG. 3),"[1]; 1/12/6 vs pCMVβ with DC-Chol/DOPE 1/3, 48 h",significantly enhanced the number of X-Gal positive cells
same,increase in the number of β galactosidase positive cells,[1]; 1:12:6 pCMVβ:Mu1:DC-Chol/DOPE,6 fold
same,cell loss,"[1]; Mu1 complex, any of the concentrations utilized",No obvious cell loss
same,Charge/AA ratio,[2],0.63
same,theoretical charge ratio of Mu1 to pCMVβ,"[2]; 0.5/1.0 (w/w) Mu1 to pCMVβ, 12000 cations to 7500 anions",1.6
same,transfection activity compared to poly lysine and poly arginine complexes,[3],excellent transfection activity

# Reference: US20030153081A1, “Viral core protein-cationic lipid-nucleic acid-delivery complexes” (priority 1999, published 2003)
